Data reported in ChEMBL document CHEMBL4219204, “Structure-based design and discovery of potent and selective KDM5 inhibitors” (Bioorg Med Chem Lett, 2018).

What was measured:
[1] = target: T1, Lysine-specific demethylase 4C (Homo sapiens, UniProt Q9H3R0); experiment: Inhibition of KDM4C (unknown origin) preincubated with enzyme
T1 sequence (Q9H3R0 whole entry): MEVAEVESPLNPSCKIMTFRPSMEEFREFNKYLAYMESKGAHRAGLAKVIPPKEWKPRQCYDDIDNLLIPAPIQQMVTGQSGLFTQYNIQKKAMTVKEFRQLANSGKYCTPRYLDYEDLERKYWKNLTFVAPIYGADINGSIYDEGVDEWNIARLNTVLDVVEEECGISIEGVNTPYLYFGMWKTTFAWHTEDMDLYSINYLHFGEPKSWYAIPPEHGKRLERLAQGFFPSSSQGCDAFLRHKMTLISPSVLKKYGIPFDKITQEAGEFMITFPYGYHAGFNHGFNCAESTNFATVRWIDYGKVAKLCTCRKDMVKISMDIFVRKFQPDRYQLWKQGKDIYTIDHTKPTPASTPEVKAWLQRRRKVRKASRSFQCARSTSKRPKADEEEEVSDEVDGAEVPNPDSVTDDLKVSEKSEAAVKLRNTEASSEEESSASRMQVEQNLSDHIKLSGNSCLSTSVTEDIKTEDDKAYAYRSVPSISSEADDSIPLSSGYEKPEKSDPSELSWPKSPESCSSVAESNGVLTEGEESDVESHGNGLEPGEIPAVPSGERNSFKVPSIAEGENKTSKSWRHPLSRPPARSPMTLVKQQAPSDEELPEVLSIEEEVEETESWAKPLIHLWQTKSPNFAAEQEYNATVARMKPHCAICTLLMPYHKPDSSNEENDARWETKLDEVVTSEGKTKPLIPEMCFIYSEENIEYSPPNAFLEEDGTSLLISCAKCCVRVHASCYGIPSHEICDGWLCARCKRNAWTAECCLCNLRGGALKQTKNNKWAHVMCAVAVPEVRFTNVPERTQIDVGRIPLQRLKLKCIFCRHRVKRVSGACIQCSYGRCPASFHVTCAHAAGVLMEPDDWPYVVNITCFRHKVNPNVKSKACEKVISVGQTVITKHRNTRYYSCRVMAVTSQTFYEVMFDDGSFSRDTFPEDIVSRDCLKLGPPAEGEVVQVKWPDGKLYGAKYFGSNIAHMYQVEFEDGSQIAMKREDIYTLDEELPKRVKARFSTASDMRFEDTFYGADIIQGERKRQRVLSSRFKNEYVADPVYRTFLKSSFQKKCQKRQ

[2] = target: Lysine-specific demethylase 5A/5B (Homo sapiens, UniProt P29375+Q9UGL1); experiment: Inhibition of KDM5A/KDM5B in human ZR-75-1 cells assessed as increase in H3K4me3 level after 72 hrs by fluorometric immunoassay; type: cell-based
[3] = target: Lysine-specific demethylase 5A (Homo sapiens, UniProt P29375); experiment: Inhibition of KDM5A (unknown origin) preincubated with enzyme
[4] = target: Lysine-specific demethylase 5B (Homo sapiens, UniProt Q9UGL1); experiment: Inhibition of KDM5B (unknown origin) preincubated with enzyme
Chain of Lysine-specific demethylase 5B (Q9UGL1 whole entry): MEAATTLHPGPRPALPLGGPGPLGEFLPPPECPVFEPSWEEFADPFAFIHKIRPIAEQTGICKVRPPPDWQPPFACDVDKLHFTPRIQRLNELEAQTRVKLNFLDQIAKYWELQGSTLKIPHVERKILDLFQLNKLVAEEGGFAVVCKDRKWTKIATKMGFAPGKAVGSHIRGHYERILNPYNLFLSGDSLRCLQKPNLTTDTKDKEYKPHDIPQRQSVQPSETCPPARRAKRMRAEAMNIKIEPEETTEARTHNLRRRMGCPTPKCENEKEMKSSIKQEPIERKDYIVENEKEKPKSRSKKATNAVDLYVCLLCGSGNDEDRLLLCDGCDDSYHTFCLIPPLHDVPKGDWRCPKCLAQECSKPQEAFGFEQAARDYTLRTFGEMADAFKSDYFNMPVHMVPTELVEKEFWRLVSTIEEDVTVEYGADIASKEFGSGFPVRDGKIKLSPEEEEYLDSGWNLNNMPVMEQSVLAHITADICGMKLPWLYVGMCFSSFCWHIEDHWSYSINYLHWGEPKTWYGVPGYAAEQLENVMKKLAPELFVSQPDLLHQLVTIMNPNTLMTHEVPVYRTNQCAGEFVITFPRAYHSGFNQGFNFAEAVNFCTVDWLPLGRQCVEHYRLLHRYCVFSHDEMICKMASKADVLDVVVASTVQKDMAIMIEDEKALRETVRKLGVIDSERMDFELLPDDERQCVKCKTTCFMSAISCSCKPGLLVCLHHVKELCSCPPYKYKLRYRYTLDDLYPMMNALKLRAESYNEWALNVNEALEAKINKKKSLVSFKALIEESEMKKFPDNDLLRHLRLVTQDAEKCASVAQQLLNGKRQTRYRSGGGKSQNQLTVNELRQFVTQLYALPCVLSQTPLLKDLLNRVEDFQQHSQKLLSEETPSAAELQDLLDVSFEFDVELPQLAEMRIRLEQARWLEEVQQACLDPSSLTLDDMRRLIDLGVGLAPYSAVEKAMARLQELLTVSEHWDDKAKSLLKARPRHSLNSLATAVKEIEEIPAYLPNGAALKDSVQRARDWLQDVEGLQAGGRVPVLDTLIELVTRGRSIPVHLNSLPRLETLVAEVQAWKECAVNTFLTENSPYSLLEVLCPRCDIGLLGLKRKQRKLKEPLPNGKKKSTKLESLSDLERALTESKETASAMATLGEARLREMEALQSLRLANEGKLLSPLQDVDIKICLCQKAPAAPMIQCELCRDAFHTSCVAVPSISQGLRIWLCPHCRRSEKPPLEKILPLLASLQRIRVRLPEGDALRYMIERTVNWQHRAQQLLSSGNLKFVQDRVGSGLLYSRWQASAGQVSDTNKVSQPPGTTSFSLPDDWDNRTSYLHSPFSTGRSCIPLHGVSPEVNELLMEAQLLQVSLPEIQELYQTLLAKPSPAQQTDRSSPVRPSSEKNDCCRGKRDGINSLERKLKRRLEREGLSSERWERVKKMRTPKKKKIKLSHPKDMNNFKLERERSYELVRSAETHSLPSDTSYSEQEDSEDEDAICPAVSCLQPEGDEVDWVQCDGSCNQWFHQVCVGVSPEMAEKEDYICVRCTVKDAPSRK

Chain of Lysine-specific demethylase 5A (P29375 whole entry): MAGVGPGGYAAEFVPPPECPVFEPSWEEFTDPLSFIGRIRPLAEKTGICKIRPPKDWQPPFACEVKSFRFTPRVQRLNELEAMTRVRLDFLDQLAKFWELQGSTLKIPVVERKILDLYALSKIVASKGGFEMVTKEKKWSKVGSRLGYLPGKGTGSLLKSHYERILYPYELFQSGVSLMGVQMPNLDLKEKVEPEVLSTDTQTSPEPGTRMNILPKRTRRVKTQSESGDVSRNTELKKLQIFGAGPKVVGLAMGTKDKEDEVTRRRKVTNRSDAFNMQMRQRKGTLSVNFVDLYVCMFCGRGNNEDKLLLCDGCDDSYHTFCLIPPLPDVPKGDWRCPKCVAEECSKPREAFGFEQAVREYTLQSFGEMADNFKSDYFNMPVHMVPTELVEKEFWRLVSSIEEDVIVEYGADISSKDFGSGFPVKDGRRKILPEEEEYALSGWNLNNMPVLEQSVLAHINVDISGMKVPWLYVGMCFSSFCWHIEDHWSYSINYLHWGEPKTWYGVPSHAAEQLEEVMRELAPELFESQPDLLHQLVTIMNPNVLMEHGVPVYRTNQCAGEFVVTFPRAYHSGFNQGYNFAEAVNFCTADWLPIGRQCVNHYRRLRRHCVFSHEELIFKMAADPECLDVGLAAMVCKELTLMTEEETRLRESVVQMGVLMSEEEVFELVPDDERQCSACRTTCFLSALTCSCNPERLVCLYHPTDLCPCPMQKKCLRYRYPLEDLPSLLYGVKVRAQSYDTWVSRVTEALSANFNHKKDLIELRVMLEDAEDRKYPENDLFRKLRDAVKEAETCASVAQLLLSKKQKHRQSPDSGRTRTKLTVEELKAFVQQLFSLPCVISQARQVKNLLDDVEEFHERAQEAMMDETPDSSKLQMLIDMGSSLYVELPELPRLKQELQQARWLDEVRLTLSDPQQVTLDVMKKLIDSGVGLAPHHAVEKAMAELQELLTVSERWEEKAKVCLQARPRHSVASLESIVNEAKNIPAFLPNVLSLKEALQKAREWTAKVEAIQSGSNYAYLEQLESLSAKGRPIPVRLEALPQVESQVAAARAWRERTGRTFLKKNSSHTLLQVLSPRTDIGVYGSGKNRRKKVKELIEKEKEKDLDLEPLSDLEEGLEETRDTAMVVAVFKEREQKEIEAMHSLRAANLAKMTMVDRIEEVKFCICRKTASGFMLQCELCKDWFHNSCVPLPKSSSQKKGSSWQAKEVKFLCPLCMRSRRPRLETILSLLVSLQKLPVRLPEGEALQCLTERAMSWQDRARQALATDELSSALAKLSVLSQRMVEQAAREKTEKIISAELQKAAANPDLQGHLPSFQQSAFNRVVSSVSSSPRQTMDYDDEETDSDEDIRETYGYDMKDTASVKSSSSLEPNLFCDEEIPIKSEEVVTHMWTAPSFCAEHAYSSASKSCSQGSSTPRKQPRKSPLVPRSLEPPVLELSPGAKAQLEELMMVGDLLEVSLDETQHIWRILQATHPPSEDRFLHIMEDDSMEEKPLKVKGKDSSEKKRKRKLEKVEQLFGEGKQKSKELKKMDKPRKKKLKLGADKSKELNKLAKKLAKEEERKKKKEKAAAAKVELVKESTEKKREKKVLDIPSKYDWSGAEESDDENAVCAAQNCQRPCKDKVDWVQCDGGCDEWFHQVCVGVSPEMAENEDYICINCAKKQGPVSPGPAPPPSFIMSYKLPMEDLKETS

COc1cc(Cl)ccc1COc1ccnn1-c1cc(C(=O)O)ccn1
IC50 [1]: 38 nM | EC50 [2]: 110 nM | IC50 [3]: 12 nM | IC50 [4]: 1 nM

O=C(O)c1ccnc(-n2nccc2-c2ccccc2)c1
IC50 [1]: 6200 nM | IC50 [4]: 4400 nM

O=C(O)c1ccnc(-n2nccc2OCc2ccc(Cl)cc2OCC2CC2)c1
IC50 [1]: 280 nM | IC50 [3]: 75 nM | IC50 [4]: 6 nM

N#Cc1ccc(COc2ccnn2-c2cc(C(=O)O)ccn2)cc1
IC50 [1]: 14 nM | EC50 [2]: 940 nM | IC50 [3]: 4 nM | IC50 [4]: 0.6 nM

CS(=O)(=O)c1ccc(-c2ccnn2-c2cc(C(=O)O)ccn2)cc1
IC50 [1]: 2700 nM | IC50 [4]: 350 nM

O=C(O)c1ccnc(-n2nccc2OCc2ccc(C3CC3)cc2)c1
IC50 [3]: 250 nM | IC50 [4]: 8 nM

O=C(O)c1ccnc(-n2nccc2OCc2ccccc2)c1
IC50 [1]: 5 nM | EC50 [2]: 7000 nM | IC50 [3]: 550 nM | IC50 [4]: 1 to 24 nM

O=C(O)c1ccnc(-n2nccc2OCc2ccc(Cl)cc2)c1
IC50 [1]: 54 nM | EC50 [2]: 420 nM | IC50 [3]: 14 nM | IC50 [4]: 4 nM

CCc1cnn(-c2cc(C(=O)O)ccn2)c1OCc1ccc(F)cc1
IC50 [1]: 260 nM | IC50 [3]: 29 nM | IC50 [4]: 24 nM

O=C(O)c1ccnc(-n2nccc2OCc2ccc(Br)cc2)c1
EC50 [2]: 860 nM | IC50 [3]: 6 nM | IC50 [4]: 2 nM

Cc1ccc(-c2ccnn2-c2cc(C(=O)O)ccn2)cc1O
IC50 [1]: 1100 nM | IC50 [4]: 76 nM

COc1cc(-c2ccnn2-c2cc(C(=O)O)ccn2)ccc1C
IC50 [1]: 1800 nM | IC50 [4]: 540 nM

CC(Oc1ccnn1-c1cc(C(=O)O)ccn1)c1ccc(F)cc1 (stereo unspecified)
IC50 [1]: 310 nM | IC50 [3]: 180 nM | IC50 [4]: 41 nM

O=C(O)c1ccnc(-n2nccc2-c2cccc(F)c2)c1
IC50 [1]: 660 nM | IC50 [4]: 500 nM

O=C(O)c1ccnc(-n2nccc2-c2ccc(O)cc2)c1
IC50 [1]: 450 nM | IC50 [4]: 320 nM

O=C(O)c1ccnc(-n2ncc(CCO)c2OCc2ccc(F)cc2)c1
IC50 [1]: > 2000 nM | IC50 [3]: 80 nM | IC50 [4]: 68 nM

COc1cc(-c2ccnn2-c2cc(C(=O)O)ccn2)ccc1Cl
IC50 [1]: 2900 nM | IC50 [4]: 230 nM

O=C(O)c1ccnc(-n2nccc2OCc2cccc(F)c2)c1
EC50 [2]: 12000 nM | IC50 [3]: 430 nM | IC50 [4]: 22 nM

Cc1ccc(COc2ccnn2-c2cc(C(=O)O)ccn2)cc1
IC50 [1]: 1100 nM | EC50 [2]: 990 nM | IC50 [3]: 32 nM | IC50 [4]: 4 nM

Cc1ccc(-c2ccnn2-c2cc(C(=O)O)ccn2)cc1
IC50 [1]: 1100 nM | IC50 [4]: 200 nM

O=C(O)c1ccnc(-n2nccc2OCc2ccc(Cl)cc2F)c1
EC50 [2]: 1300 nM | IC50 [3]: 18 nM | IC50 [4]: 4 nM

O=C(O)c1ccnc(-n2nccc2OCc2ccccc2F)c1
IC50 [3]: 270 nM | IC50 [4]: 42 nM

COc1ccc(COc2ccnn2-c2cc(C(=O)O)ccn2)cc1
IC50 [1]: 68 nM | IC50 [3]: 1700 nM | IC50 [4]: 4 nM

CN(C)CCc1cnn(-c2cc(C(=O)O)ccn2)c1OCc1ccc(F)cc1
IC50 [1]: 19 nM | EC50 [2]: 4600 nM | IC50 [3]: 3 nM | IC50 [4]: 1 nM

O=C(O)c1ccnc(-n2nccc2-c2cccc(O)c2)c1
IC50 [1]: 410 nM | IC50 [4]: 120 nM

O=C(O)c1ccnc(-n2nccc2-c2ccc(F)cc2F)c1
IC50 [1]: 380 nM | IC50 [4]: 170 nM

CCc1ccc(COc2ccnn2-c2cc(C(=O)O)ccn2)cc1
IC50 [1]: 3600 nM | EC50 [2]: 1300 nM | IC50 [3]: 44 nM | IC50 [4]: 3 nM

O=C(O)c1ccnc(-n2nccc2OCc2ccc(F)cc2)c1
IC50 [1]: 24 nM | EC50 [2]: 840 nM | IC50 [3]: 38 nM | IC50 [4]: 4 nM

O=C(O)c1ccnc(-n2nccc2OCc2ccc(Cl)cc2OCc2ccccc2)c1
IC50 [1]: 74 nM | EC50 [2]: 800 nM | IC50 [3]: 32 nM | IC50 [4]: 4 nM

O=C(O)c1ccnc(-n2nccc2-c2ccc(F)cc2)c1
IC50 [1]: 490 nM | IC50 [4]: 240 nM

O=C(O)c1ccnc(-n2nccc2OCc2ccc(C(F)(F)F)cc2)c1
IC50 [3]: 240 nM

O=C(O)c1ccnc(-n2nccc2-c2ccc(F)c(F)c2)c1
IC50 [1]: 560 nM | IC50 [4]: 370 nM

CCOc1cc(Cl)ccc1COc1ccnn1-c1cc(C(=O)O)ccn1
IC50 [1]: 78 nM | EC50 [2]: 1000 nM | IC50 [3]: 19 nM | IC50 [4]: 4 nM

Cc1cnn(-c2cc(C(=O)O)ccn2)c1OCc1ccc(F)cc1
IC50 [1]: 2900 nM | IC50 [3]: 77 nM | IC50 [4]: 54 nM
